Measured values published in US20240158466A1, “PEGYLATED P-SELECTIN INHIBITORS” (Beth Israel Deaconess Medical Center, Inc., priority 2021, published 2024).

Key:
[1] = target: P-selectin on activated human platelets (human) (UniProt P16109); assay: cell-based or functional assay
[2] = target: P-selectin on activated mouse platelets (mouse) (UniProt Q01102); assay: cell-based or functional assay
vein recanalization = conditions: primate models; cited from earlier work
P-selectin [3] = target: T1, P-selectin (Homo sapiens, UniProt P16109); conditions: synthetic P-selectin antagonists, literature refs 48,49; cited from earlier work
T1 sequence (P16109 42-830): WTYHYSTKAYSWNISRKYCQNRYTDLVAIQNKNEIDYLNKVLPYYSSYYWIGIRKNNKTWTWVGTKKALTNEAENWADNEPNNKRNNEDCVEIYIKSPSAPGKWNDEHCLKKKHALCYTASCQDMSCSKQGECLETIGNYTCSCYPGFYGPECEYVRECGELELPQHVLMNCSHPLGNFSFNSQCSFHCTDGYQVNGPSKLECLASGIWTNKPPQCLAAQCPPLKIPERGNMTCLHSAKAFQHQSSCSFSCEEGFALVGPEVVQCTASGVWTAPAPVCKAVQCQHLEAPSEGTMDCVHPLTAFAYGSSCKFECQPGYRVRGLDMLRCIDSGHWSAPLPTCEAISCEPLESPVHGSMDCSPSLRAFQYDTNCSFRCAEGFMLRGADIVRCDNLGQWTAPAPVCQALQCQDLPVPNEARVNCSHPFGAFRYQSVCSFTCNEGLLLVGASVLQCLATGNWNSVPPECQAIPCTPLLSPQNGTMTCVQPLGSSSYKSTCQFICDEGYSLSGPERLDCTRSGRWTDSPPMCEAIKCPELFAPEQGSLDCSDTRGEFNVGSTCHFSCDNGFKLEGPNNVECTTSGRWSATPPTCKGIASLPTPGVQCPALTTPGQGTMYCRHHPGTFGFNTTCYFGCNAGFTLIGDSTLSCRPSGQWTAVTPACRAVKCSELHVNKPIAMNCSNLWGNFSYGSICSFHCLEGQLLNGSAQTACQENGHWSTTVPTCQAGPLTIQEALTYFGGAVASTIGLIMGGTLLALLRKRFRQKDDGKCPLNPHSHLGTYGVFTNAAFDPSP

[4] = test system: platelet-monocyte aggregation; conditions: humans; cited from earlier work
thrombus = conditions: mice; cited from earlier work
vein wall injury = conditions: rats; cited from earlier work
venous thrombus = assay: Murine model of non-occlusive venous thrombosis (electrolytic injury of inferior vena cava); format: in vivo, C57BL/6 mice
Experimental: Enoxaparin was administered subcutaneously (6 mg/kg) 4 hours prior and 24 hours after electrolytic injury as a clinically relevant control. […] Venous side branches were ligated or cauterized, while posterior branches were left patent. A 25-gauge stainless steel needle, attached to a silver-coated copper wire was inserted into the exposed caudal vena cava and positioned against the anterior wall (anode). A second wire was implanted subcutaneously to complete the circuit (cathode) and a 250 μAmps current applied for 15 min. Subsequently, the needle was removed and a cotton swab held in gentle contact with the puncture site to prevent bleeding. The vena cava and associated thrombus, immediately below the renal veins to just above the bifurcation, was excised 48 hours after injury for determination of wet thrombus weight and histological examination. Specimens were fixed overnight in 10% neutral buffered formalin, processed for paraffin embedding, and 5 μm sections stained with hematoxylin and eosin (H&E) or antibodies specific to neutrophils (Ly-6G, BD Biosciences) and monocytes (CD68, Abeam, Cambridge, MA). The circumference of the vein wall was imaged at 20× magnification and leukocyte infiltration was quantified in 3 representative animals/group, 5 to 10 sections/tissue sample.

hemostasis = assay: Tail vein transection bleeding time; format: in vivo, mouse; conditions: PG-6 8 μmol/kg or enoxaparin (LMWH) 6 mg/kg intravenous, 5 min prior to transection
Experimental: Hemostasis was assessed using a tail vein transection model to determine bleeding time.^63 Mice were anesthetized with ketamine and xylazine by intraperitoneal injection and placed on a warming mat at 37° C. Sterile saline, enoxaparin (6 mg/kg), or PG-6 in 125 μL of sterile saline was injected into the penile vein. Five minutes after administration of test compound, the lateral tail vein was transected with a number 11 scalpel blade at a tail width of 2.3 mm and immediately submerged in 37° C. phosphate buffered saline. The bleeding time was determined at that instant when bleeding had ceased for 30 seconds. Animals were excluded if arterial bleeding was present.

P-selectin [5] = target: T1, P-selectin; conditions: cited from earlier work
[6] = high affinity biologics; cited from earlier work

P-selectin on activated mouse platelets (mouse), sequence (Q01102 42-768): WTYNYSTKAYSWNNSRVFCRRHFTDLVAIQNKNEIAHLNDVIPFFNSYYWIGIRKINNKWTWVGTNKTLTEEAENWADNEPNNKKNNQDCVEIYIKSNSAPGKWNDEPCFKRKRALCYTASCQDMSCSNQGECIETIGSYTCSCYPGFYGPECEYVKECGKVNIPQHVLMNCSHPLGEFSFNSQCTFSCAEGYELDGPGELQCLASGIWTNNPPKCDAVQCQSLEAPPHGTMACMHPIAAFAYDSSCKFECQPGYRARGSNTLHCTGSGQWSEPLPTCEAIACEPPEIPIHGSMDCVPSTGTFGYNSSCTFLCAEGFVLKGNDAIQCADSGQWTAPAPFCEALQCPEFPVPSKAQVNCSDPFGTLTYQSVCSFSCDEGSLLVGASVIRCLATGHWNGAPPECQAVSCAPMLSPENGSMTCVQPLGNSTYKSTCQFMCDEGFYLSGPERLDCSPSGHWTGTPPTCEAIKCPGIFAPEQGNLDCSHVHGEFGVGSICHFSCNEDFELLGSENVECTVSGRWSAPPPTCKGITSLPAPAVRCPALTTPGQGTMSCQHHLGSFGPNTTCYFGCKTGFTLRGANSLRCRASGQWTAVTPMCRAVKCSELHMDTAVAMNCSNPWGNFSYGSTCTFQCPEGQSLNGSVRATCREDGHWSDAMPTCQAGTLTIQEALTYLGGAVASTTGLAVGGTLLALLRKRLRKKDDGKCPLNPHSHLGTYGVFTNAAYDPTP

PEG40-GSnP-6 (PG-6) (peptide) gave a human platelet-monocyte aggregates (flow cytometry, whole blood, PG-6 120 uM) [1] of 29 % reduction, a human platelet-neutrophil aggregates (flow cytometry, whole blood, PG-6 120 uM) [1] of 42 % reduction and a murine platelet-monocyte aggregates (flow cytometry, whole blood, PG-6 120 uM) [2] of 45 % reduction. It also gave a murine platelet-neutrophil aggregates (flow cytometry, whole blood, PG-6 120 uM) [2] of 38 % reduction.

In the case of `O=C(O)c1c(O)c(C2(c3ccc(Cl)cc3)CC2)nc2c(C(F)(F)F)cccc12` [PSI-421, 2-[1-(4-chlorophenyl)cyclopropyl]-3-hydroxy-8-(trifluoromethyl)quinoline-4-carboxylic acid], the vein recanalization (vein recanalization) is listed as “enhanced”.

In the case of `C[C@@H]1O[C@@H](O[C@@H]2[C@@H](NC(=O)c3cc(=O)[nH]c(=O)[nH]3)C[C@@H](C(=O)NCCNC(=O)COCCOCC(=O)Nc3cc(S(=O)(=O)O)cc4cc(S(=O)(=O)O)cc(S(=O)(=O)O)c34)C[C@H]2O[C@@H]2O[C@H](CO)[C@H](O)[C@H](O[C@@H](CC3CCCCC3)C(=O)O)[C@H]2OC(=O)c2ccccc2)[C@@H](O)[C@H](O)[C@@H]1O` [GMI-1070], the IC50 (P-selectin [3]) is listed as 423 µM.

For `O=C(O)c1c(O)c(Cc2ccc(Cl)cc2)nc2c3c(ccc12)CCCC3` [PSI-697], the “inhibition of platelet-monocyte aggregation in a phase I trial” value [4] is listed as “failed to inhibit”, the thrombus weight (thrombus) is listed as “reduced” and the “wall stiffness, neointima formation, extravasation of inflammatory cells” value (vein wall injury) is listed as “decreased”. The vein recanalization (vein recanalization) was “enhanced”.

For enoxaparin, the “thrombus formation / thrombus weight vs saline vehicle” value (venous thrombus; 48 h after electrolytic injury, PG-6 8 μmol/kg IV, LMWH 6 mg/kg SC) was “significant reduction”, the “infiltrating CD68+ macrophages in vein wall” value (venous thrombus; 48 h after thrombus induction) was “significant reduction” and the “infiltrating Ly6G+ neutrophils in vein wall” value (venous thrombus; 48 h after thrombus induction) was “significant reduction”. For the same molecule, the “tail vein transection bleeding time” value (hemostasis) was “prolonged” and the “tail vein transection bleeding time” value (hemostasis; listed as LMWH) was “significant increase”.

B1: crizanlizumab: the only approved P-selectin inhibitor, an antibody (antibody, chains of the INN, looked up, V domains shown)
VH: QVQLVQSGAEVKKPGASVKVSCKVSGYTFTSYDINWVRQAPGKGLEWMGWIYPGDGSIKYNEKFKGRVTMTVDKSTDTAYMELSSLRSEDTAVYYCARRGEYGNYEGAMDYWGQGTLVTVSS
VL: DIQMTQSPSSLSASVGDRVTITCKASQSVDYDGHSYMNWYQQKPGKAPKLLIYAASNLESGVPSRFSGSGSGTDFTLTISSLQPEDFATYYCQQSDENPLTFGGGTKVEIK
In the case of B1, the “Kd for P-selectin (in words)” value (P-selectin [5]; approved antibody) is given as “low nanomolar range” and the t1/2 [6] is given as 10.6 days.

B2: PSGL-1: P-selectin glycoprotein ligand-1, native cognate ligand of P-selectin (protein, UniProt Q14242 42-412, looked up)
P-selectin glycoprotein …: QATEYEYLDYDFLPETEPPEMLRNSTDTTPLTGPGTPESTTVEPAARRSTGLDAGGAVTELTTELANMGNLSTDSAAMEIQTTQPAATEAQTTQPVPTEAQTTPLAATEAQTTRLTATEAQTTPLAATEAQTTPPAATEAQTTQPTGLEAQTTAPAAMEAQTTAPAAMEAQTTPPAAMEAQTTQTTAMEAQTTAPEATEAQTTQPTATEAQTTPLAAMEALSTEPSATEALSMEPTTKRGLFIPFSVSSVTHKGIPMAASNLSVNYPVGAPDHISVKQCLLAILILALVATIFFVCTVVLAVRLSRKGHMYPVRNYSPTEMVCISSLLPDGGEGPSATANGGLSKAKSPGLTPEPREDREGDDLTLHSFLP
For B2, the Kd (P-selectin [5]; reported values) is given as 0.07 to 0.3 µM.
